Molecular target: T1, N-terminally GST-tagged human full length recombinant Mps-1 kinase (Homo sapiens, UniProt P33981)
T1 construct: N-terminally GST-tagged human full length recombinant Mps-1 kinase; purchased Invitrogen, Karslruhe, Germany PV4071
T1 sequence (P33981 1-857): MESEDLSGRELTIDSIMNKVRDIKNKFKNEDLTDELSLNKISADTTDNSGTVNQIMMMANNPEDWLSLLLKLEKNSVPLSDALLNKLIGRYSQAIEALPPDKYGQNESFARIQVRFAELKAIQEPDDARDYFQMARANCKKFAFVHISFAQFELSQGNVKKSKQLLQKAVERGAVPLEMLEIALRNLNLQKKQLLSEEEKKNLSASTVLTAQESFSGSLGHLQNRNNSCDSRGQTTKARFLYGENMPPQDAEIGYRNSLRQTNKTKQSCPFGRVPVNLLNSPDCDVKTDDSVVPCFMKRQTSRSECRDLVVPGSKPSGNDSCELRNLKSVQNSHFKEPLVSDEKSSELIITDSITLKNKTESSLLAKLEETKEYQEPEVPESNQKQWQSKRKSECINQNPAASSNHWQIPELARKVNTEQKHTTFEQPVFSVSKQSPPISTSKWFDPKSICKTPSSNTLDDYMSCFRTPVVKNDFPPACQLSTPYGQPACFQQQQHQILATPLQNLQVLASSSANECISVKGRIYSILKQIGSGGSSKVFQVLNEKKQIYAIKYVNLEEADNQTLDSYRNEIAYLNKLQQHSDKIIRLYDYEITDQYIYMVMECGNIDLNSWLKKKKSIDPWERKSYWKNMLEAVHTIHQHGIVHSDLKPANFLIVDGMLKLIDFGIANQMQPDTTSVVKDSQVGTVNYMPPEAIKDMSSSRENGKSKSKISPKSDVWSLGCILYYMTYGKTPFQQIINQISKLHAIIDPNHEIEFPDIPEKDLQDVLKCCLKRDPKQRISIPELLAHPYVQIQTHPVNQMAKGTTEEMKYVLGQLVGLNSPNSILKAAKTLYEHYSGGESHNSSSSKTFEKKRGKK
Assay: Mps-1 kinase assay (TR-FRET)
Type: biochemical
Conditions: Mps1 IC50 [nM], 10 μM ATP, 1 μM peptide substrate, 60 min at 22° C.
Outline: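 Kinase activity of N-terminally GST-tagged full-length recombinant Mps-1, used at about 1 nM final and set within the linear range, was measured on a biotinylated peptide substrate. Phosphopeptide was detected by TR-FRET from Eu-anti-phospho(Ser/Thr) antibody to streptavidin-XLent after 1 h at 22° C.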

Structure (SMILES) | IC50
COc1ccccc1Sc1cc(NCCC(F)(F)F)c2ncc(-c3ccc(C(=O)NC4CC4)c(C)c3)n2n1 [Example 55, N-cyclopropyl-4-{6-[(2-methoxyphenyl)sulfanyl]-8-[(3,3,3-trifluoropropyl)amino]imidazo[1,2-b]pyridazin-3-yl}-2-methylbenzamide] | 1.2 nM
Cc1cc(-c2cnc3c(NCC(C)(C)N)cc(-c4ccc(F)cc4)nn23)ccc1C(=O)NC1CC1 [Example 57, 4-{8-[(2-Amino-2-methylpropyl)amino]-6-(4-fluorophenyl)imidazo[1,2-b]pyridazin-3-yl}-N-cyclopropyl-2-methylbenzamide] | 4.4 nM
Cc1cc(-c2cnc3c(NCC(C)(C)N)cc(-c4ccnn4C)nn23)ccc1C(=O)NC1CC1 [Example 58, 4-{8-[(2-Amino-2-methylpropyl)amino]-6-(1-methyl-1H-pyrazol-5-yl)imidazo[1,2-b]pyridazin-3-yl}-N-cyclopropyl-2-methylbenzamide] | 20.5 nM
Cc1cc(-c2cnc3c(NCC(C)(C)N)cc(-c4ccccc4CO)nn23)ccc1C(=O)NC1CC1 [Example 59, 4-{8-[(2-Amino-2-methylpropyl)amino]-6-[2-(hydroxymethyl)phenyl]imidazo[1,2-b]pyridazin-3-yl}-N-cyclopropyl-2-methylbenzamide] | 32.5 nM
Cc1cc(Sc2cc(NCC(C)(C)O)c3ncc(-c4ccc(C(=O)NC5CC5)c(C)c4)n3n2)ccc1O [Example 63, N-cyclopropyl-4-{6-[(4-hydroxy-3-methylphenyl)sulfanyl]-8-[(2-hydroxy-2-methylpropyl)amino]imidazo[1,2-b]pyridazin-3-yl}-2-methylbenzamide] | < 0.1 nM
Cc1ccc(F)cc1Sc1cc(NCC(C)(C)O)c2ncc(-c3ccc(C(=O)NC4CC4)c(C)c3)n2n1 [Example 64, N-cyclopropyl-4-{6-[(5-fluoro-2-methylphenyl)sulfanyl]-8-[(2-hydroxy-2-methylpropyl)amino]imidazo[1,2-b]pyridazin-3-yl}-2-methylbenzamide] | 0.1 nM
Cc1cc(Sc2cc(NCC(C)(C)O)c3ncc(-c4ccc(C(=O)NC5CC5)c(C)c4)n3n2)ccc1F [Example 65, N-cyclopropyl-4-{6-[(4-fluoro-3-methylphenyl)sulfanyl]-8-[(2-hydroxy-2-methylpropyl)amino]imidazo[1,2-b]pyridazin-3-yl}-2-methylbenzamide] | 0.7 nM
Cc1ccc(Sc2cc(NCC(C)(C)O)c3ncc(-c4ccc(C(=O)NC5CC5)c(C)c4)n3n2)cc1F [Example 66, N-cyclopropyl-4-{6-[(3-fluoro-4-methylphenyl)sulfanyl]-8-[(2-hydroxy-2-methylpropyl)amino]imidazo[1,2-b]pyridazin-3-yl}-2-methylbenzamide] | 0.2 nM
Cc1cc(F)cc(Sc2cc(NCC(C)(C)O)c3ncc(-c4ccc(C(=O)NC5CC5)c(C)c4)n3n2)c1 [Example 67, N-cyclopropyl-4-{6-[(3-fluoro-5-methylphenyl)sulfanyl]-8-[(2-hydroxy-2-methylpropyl)amino]imidazo[1,2-b]pyridazin-3-yl}-2-methylbenzamide] | 0.1 nM
Cc1cc(-c2cnc3c(NCC(C)(C)O)cc(Sc4cc(F)cc(F)c4)nn23)ccc1C(=O)NC1CC1 [Example 68, N-cyclopropyl-4-{6-[(3,5-difluorophenyl)sulfanyl]-8-[(2-hydroxy-2-methylpropyl)amino]imidazo[1,2-b]pyridazin-3-yl}-2-methylbenzamide] | < 0.1 nM
Cc1cc(F)ccc1Sc1cc(NCC(C)(C)O)c2ncc(-c3ccc(C(=O)NC4CC4)c(C)c3)n2n1 [Example 69, N-cyclopropyl-4-{6-[(4-fluoro-2-methylphenyl)sulfanyl]-8-[(2-hydroxy-2-methylpropyl)amino]imidazo[1,2-b]pyridazin-3-yl}-2-methylbenzamide] | 1 nM
Cc1cc(-c2cnc3c(NCC(C)(C)O)cc(Sc4ccccc4F)nn23)ccc1C(=O)NC1CC1 [Example 70, N-cyclopropyl-4-{6-[(2-fluorophenyl)sulfanyl]-8-[(2-hydroxy-2-methylpropyl)amino]imidazo[1,2-b]pyridazin-3-yl}-2-methylbenzamide] | 0.3 nM
Cc1cc(-c2cnc3c(NCC(C)(C)O)cc(Sc4ccc(F)cc4)nn23)ccc1C(=O)NC1CC1 [Example 71, N-cyclopropyl-4-{6-[(4-fluorophenyl)sulfanyl]-8-[(2-hydroxy-2-methylpropyl)amino]imidazo[1,2-b]pyridazin-3-yl}-2-methylbenzamide] | 0.8 nM
C/C=C(\C)c1cc(NCC(C)(C)O)c2ncc(-c3ccc(C(=O)NC4CC4)cc3OC)n2n1 [Example 72, 4-{6-[(2E)-But-2-en-2-yl]-8-[(2-hydroxy-2-methylpropyl)amino]imidazo[1,2-b]pyridazin-3-yl}-N-cyclopropyl-3-methoxybenzamide] | 44.4 nM
O=C(NC1CC1)c1ccc(-c2cnc3c(NCCC(F)(F)F)cc(Sc4ccccc4)nn23)c(O)c1 [Example 74, N-cyclopropyl-3-hydroxy-4-{6-(phenylsulfanyl)-8-[(3,3,3-trifluoropropyl)amino]imidazo[1,2-b]pyridazin-3-yl}benzamide] | < 0.7 nM
Cc1cc(-c2cnc3c(NCC(C)(C)O)cc(Oc4cccc(F)c4)nn23)ccc1C(=O)NC1CC1 [Example 75, N-cyclopropyl-4-{6-(3-fluorophenoxy)-8-[(2-hydroxy-2-methylpropyl)amino]imidazo[1,2-b]pyridazin-3-yl}-2-methylbenzamide] | < 0.7 nM
Cc1cc(-c2cnc3c(NCC(C)(C)O)cc(Oc4ccccc4)nn23)ccc1C(=O)NC1CC1 [Example 76, N-cyclopropyl-4-{8-[(2-hydroxy-2-methylpropyl)amino]-6-phenoxyimidazo[1,2-b]pyridazin-3-yl}-2-methylbenzamide] | < 0.7 nM
Cc1cc(-c2cnc3c(NCCC(F)(F)F)cc(Oc4ccccc4)nn23)ccc1C(=O)NC1CC1 [Example 77, N-cyclopropyl-2-methyl-4-{6-phenoxy-8-[(3,3,3-trifluoropropyl)amino]imidazo[1,2-b]pyridazin-3-yl}benzamide] | < 0.7 nM

More lines, now with the values ahead:

IC50 | Structure (SMILES)
0.2 nM | Cc1cc(-c2cnc3c(NCC(C)(C)O)cc(Sc4ccc(O)cc4)nn23)ccc1C(=O)NC1CC1 [Example 60A, N-cyclopropyl-4-{8-[(2-hydroxy-2-methylpropyl)amino]-6-[(4-hydroxyphenyl)sulfanyl]imidazo[1,2-b]pyridazin-3-yl}-2-methylbenzamide]
< 0.1 nM | COc1ccc(Sc2cc(NCC(C)(C)O)c3ncc(-c4ccc(C(=O)NC5CC5)c(C)c4)n3n2)cc1 [Example 60B, N-cyclopropyl-4-{8-[(2-hydroxy-2-methylpropyl)amino]-6-[(4-methoxyphenyl)sulfanyl]imidazo[1,2-b]pyridazin-3-yl}-2-methylbenzamide]
0.2 nM | Cc1cc(-c2cnc3c(NCC(C)(C)O)cc(Sc4cccc(O)c4)nn23)ccc1C(=O)NC1CC1 [Example 61A, N-cyclopropyl-4-{8-[(2-hydroxy-2-methylpropyl)amino]-6-[(3-hydroxyphenyl)sulfanyl]imidazo[1,2-b]pyridazin-3-yl}-2-methylbenzamide]
0.3 nM | COc1cccc(Sc2cc(NCC(C)(C)O)c3ncc(-c4ccc(C(=O)NC5CC5)c(C)c4)n3n2)c1 [Example 61B, N-cyclopropyl-4-{8-[(2-hydroxy-2-methylpropyl)amino]-6-[(3-methoxyphenyl)sulfanyl]imidazo[1,2-b]pyridazin-3-yl}-2-methylbenzamide]
0.2 nM | CC(C)(O)CNc1cc(Sc2cccc(F)c2)nn2c(-c3ccc(C(=O)NC4CC4)cc3O)cnc12 [Example 62A, N-cyclopropyl-4-{6-[(3-fluorophenyl)sulfanyl]-8-[(2-hydroxy-2-methylpropyl)amino]imidazo[1,2-b]pyridazin-3-yl}-3-hydroxybenzamide]
11.5 nM | COc1cc(C(=O)NC2CC2)ccc1-c1cnc2c(NCC(C)(C)O)cc(Sc3cccc(F)c3)nn12 [Example 62B, N-cyclopropyl-4-{6-[(3-fluorophenyl)sulfanyl]-8-[(2-hydroxy-2-methylpropyl)amino]imidazo[1,2-b]pyridazin-3-yl}-3-methoxybenzamide]
< 0.7 nM | Cc1cc(-c2cnc3c(NCC(C)(C)O)cc(Sc4ccccc4O)nn23)ccc1C(=O)NC1CC1 [Example 73A, N-cyclopropyl-4-{8-[(2-hydroxy-2-methylpropyl)amino]-6-[(2-hydroxyphenyl)sulfanyl]imidazo[1,2-b]pyridazin-3-yl}-2-methylbenzamide]
3.8 nM | COc1ccccc1Sc1cc(NCC(C)(C)O)c2ncc(-c3ccc(C(=O)NC4CC4)c(C)c3)n2n1 [Example 73B, N-cyclopropyl-4-{8-[(2-hydroxy-2-methylpropyl)amino]-6-[(2-methoxyphenyl)sulfanyl]imidazo[1,2-b]pyridazin-3-yl}-2-methylbenzamide]

Source: US9255100B2 (BAYER INTELLECTUAL PROPERTY GMBH, priority 2010, dated 2016)
